ChEMBL document CHEMBL3885861, “Open TG-GATES”

Organism: Rattus norvegicus
Assay: Open TG-GATES - Regimen: Single
Format: toxicity, organism-based, Sprague-Dawley
Set-up: regimen Single, gender Male, age 6 weeks
Details: in vivo, iv, route intravenous injection; for KIDNEY_L / KIDNEY_R / KIDNEY_TOTAL: tissue Kidney; for LIVER: tissue Liver; for ALP / ALT / AST / BUN / CRE / DBIL / GLC / IP / K / PL / RALB / TBIL / TC / TG / TP / gamma-GTP / LDH / Na: tissue Plasma
[1] = 0 mg/kg, 3 h, dose level Control
[2] = 0 mg/kg, 3 h, tissue Blood, dose level Control
[3] = 0 mg/kg, 6 h, dose level Control
[4] = 0 mg/kg, 6 h, tissue Blood, dose level Control
[5] = 0 mg/kg, 9 h, dose level Control
[6] = 0 mg/kg, 9 h, tissue Blood, dose level Control
[7] = 0 mg/kg, 24 h, dose level Control
[8] = 0 mg/kg, 24 h, tissue Blood, dose level Control

CARBOPLATIN showed a TERMINAL_BW [1] of 198.4 g, a Bas [2] of 0% and an Eos [2] of 0.4%. It also gave a Fbg [2] of 277.4 mg/dL, a Lym [2] of 80% and an MCH [2] of 21.1 pg. For the same sequence, the MCHC [2] was 32.1%, the MCV [2] was 65.9 fL and the Mono [2] was 2.2%. The Neu [2] was 16.2%, the PT [2] was 16 s and the Plat [2] was 125.4 x10_4/uL. The RBC [2] was 633.2 x10_4/ul, the Ret [2] was 6.4% and the WBC [2] was 107.8 x10_2/uL. The KIDNEY_L [1] was 0.9 g, the KIDNEY_R [1] was 0.9 g and the KIDNEY_TOTAL [1] was 1.8 g. The LIVER [1] was 9.1 g, the ALP [1] was 1848.6 IU/L and the ALT [1] was 47 IU/L. It also gave an AST [1] of 86.2 IU/L, a BUN [1] of 13.6 mg/dL and a CRE [1] of 0.2 mg/dL. For the same sequence, the DBIL [1] was 0 mg/dL, the GLC [1] was 197.2 mg/dL and the IP [1] was 8.3 mg/dL. For the same sequence, the K [1] was 3.9 meq/L, the PL [1] was 127.8 mg/dL and the RALB [1] was 3 g/dL. The TBIL [1] was 0.012 mg/dL, the TC [1] was 71.8 mg/dL and the TG [1] was 43 mg/dL. The TP [1] was 5.5 g/dL, the gamma-GTP [1] was 1.2 IU/L and the TERMINAL_BW [3] was 200.5 g. It also gave an APTT [4] of 24.3 s, a Bas [4] of 0% and an Eos [4] of 0.8%. The Fbg [4] was 274.2 mg/dL, the Lym [4] was 80.8% and the MCV [4] was 64 fL. The Mono [4] was 2.6%, the Neu [4] was 15.4% and the PT [4] was 16.1 s. For the same sequence, the Plat [4] was 119.1 x10_4/uL, the RBC [4] was 645.6 x10_4/ul and the Ret [4] was 6.5%. For the same sequence, the WBC [4] was 98 x10_2/uL, the KIDNEY_L [3] was 0.9 g and the KIDNEY_R [3] was 0.9 g. The KIDNEY_TOTAL [3] was 1.8 g, the LIVER [3] was 8.5 g and the ALP [3] was 1354.4 IU/L. For the same sequence, the AST [3] was 77 IU/L, the BUN [3] was 11.4 mg/dL and the CRE [3] was 0.2 mg/dL. The DBIL [3] was 0 mg/dL, the GLC [3] was 180.6 mg/dL and the IP [3] was 9.3 mg/dL. The K [3] was 4.4 meq/L, the LDH [3] was 202.4 IU/L and the PL [3] was 128 mg/dL. For the same sequence, the RALB [3] was 2.9 g/dL, the TBIL [3] was 0.01 mg/dL and the TC [3] was 74.2 mg/dL. The TG [3] was 74.2 mg/dL, the TP [3] was 5.3 g/dL and the gamma-GTP [3] was 1.4 IU/L. The TERMINAL_BW [5] was 195.2 g, the APTT [6] was 24.6 s and the Bas [6] was 0%. It also gave an Eos [6] of 0.6%, a Fbg [6] of 296.4 mg/dL and a Hb [6] of 13 g/dL. It also gave a Lym [6] of 77.2%, an MCHC [6] of 31.9% and an MCV [6] of 64.4 fL. For the same sequence, the Mono [6] was 2%, the Neu [6] was 19.8% and the PT [6] was 16 s. It also gave a Plat [6] of 121.6 x10_4/uL, an RBC [6] of 635.2 x10_4/ul and a Ret [6] of 6.3%. For the same sequence, the WBC [6] was 80.5 x10_2/uL, the KIDNEY_L [5] was 0.9 g and the KIDNEY_R [5] was 0.9 g. For the same sequence, the KIDNEY_TOTAL [5] was 1.8 g, the LIVER [5] was 8.2 g and the ALP [5] was 1521.4 IU/L. The ALT [5] was 38.8 IU/L, the AST [5] was 75.2 IU/L and the CRE [5] was 0.2 mg/dL. It also gave a DBIL [5] of 0 mg/dL, a GLC [5] of 182.2 mg/dL and an IP [5] of 9.7 mg/dL. For the same sequence, the K [5] was 4.3 meq/L, the LDH [5] was 155 IU/L and the Na [5] was 140.4 meq/L. The PL [5] was 123.6 mg/dL, the RALB [5] was 2.9 g/dL and the TBIL [5] was 0.008 mg/dL. For the same sequence, the TC [5] was 72.4 mg/dL, the TG [5] was 57.2 mg/dL and the TP [5] was 5.3 g/dL. It also gave a gamma-GTP [5] of 1 IU/L, a TERMINAL_BW [7] of 214.9 g and an APTT [8] of 23.2 s. It also gave a Bas [8] of 0%, an Eos [8] of 1% and a Fbg [8] of 280.2 mg/dL. It also gave a Lym [8] of 82.8%, an MCHC [8] of 32.1% and an MCV [8] of 63 fL. The Mono [8] was 2.4%, the PT [8] was 16.6 s and the Plat [8] was 124.1 x10_4/uL. It also gave an RBC [8] of 648.4 x10_4/ul, a Ret [8] of 5.2% and a WBC [8] of 108.2 x10_2/uL. It also gave a KIDNEY_L [7] of 1 g, a KIDNEY_R [7] of 1 g and a KIDNEY_TOTAL [7] of 2 g. The LIVER [7] was 9.7 g, the ALP [7] was 1592.8 IU/L and the ALT [7] was 42.2 IU/L. The AST [7] was 73 IU/L, the BUN [7] was 16.6 mg/dL and the CRE [7] was 0.2 mg/dL. It also gave a DBIL [7] of 0 mg/dL, a GLC [7] of 183 mg/dL and an IP [7] of 7.2 mg/dL. For the same sequence, the K [7] was 4.5 meq/L, the LDH [7] was 175 IU/L and the Na [7] was 140.4 meq/L. It also gave a PL [7] of 133.4 mg/dL, an RALB [7] of 2.9 g/dL and a TBIL [7] of 0.006 mg/dL. For the same sequence, the TC [7] was 69.6 mg/dL, the TG [7] was 84.4 mg/dL and the TP [7] was 5.4 g/dL. The gamma-GTP [7] was 1.2 IU/L and the TERMINAL_BW (10 mg/kg, 3 h, dose level Low) was 205.7 g.
